# Read-outs that look alike come from different tables or passages of the source.
# Test system: Anopheles arabiensis
# Assay: Larvicidal screening (WHO protocol), 3rd instar larvae
# Format: in vivo
# Conditions: for mortality at 4 µg/mL: Anopheles arabiensis
# Protocol: Anopheles arabiensis was used in the study according to the protocol described by WHO (1975) guidelines in an insectary simulating the temperature (27.5° C.), humidity (70%), and lighting (12/12) of a malaria-endemic environment. One mL of test compound (1 mg/mL) was added to 1 mL of acetone and followed by […] of distilled water to obtain a final concentration of 4 μg/mL. Thirty individuals of 3rd instar larvae were introduced into a container. Negative control was set up using the solvent (acetone) and distilled water, and a positive control included Temephos, which is an active emulsified organophosphate larvicidal used by malaria control programs. Larval mortality was examined for each container separately for 24 h and fed specially made cat food that contained less oil/fat content. The percentage of mortality was determined relative to the initial number of larvae exposed.
# Differences in larval mortality between treatments were assessed with generalized linear models using a quasi-Poisson link function. Anopheles arabiensis mortality was the dependent variable, while fixed effects were test compounds and observation period (24 and 48 h). A p-value <0.05 was considered statistically significant. Throughout the text, the results are presented as the adjusted mean±the standard error.
# [1] = 24 h, read-out: larval mortality rate in 24 hours
# [2] = 48 h, read-out: larval mortality rate in 48 hours
Molecule,"Mortality 24 h (Anopheles arabiensis larvae exposed 24 h, 4 μg/mL, adjusted mean ± standard error)","Mortality 48 h (Anopheles arabiensis larvae exposed 48 h, 4 μg/mL, adjusted mean ± standard error)",larval mortality rate in 24 hours (in 24 hours),larval mortality rate in 48 hours (in 48 hours),"mortality at 4 µg/mL (24 h, read-out: Mortality 24 h)",mortality at 4 µg/mL [1],"mortality at 4 µg/mL (48 h, read-out: Mortality 48 h)",mortality at 4 µg/mL [2]
"1-Ethyl 7-isopropyl 3-(3,5-bis(trifluoromethyl)benzoyl)indolizine-1,7-dicarboxylate [Compound 3m]",93.45 ± 1.29%,96.12 ± 1.90%,93.45±1.29,96.12±1.90,–,–,–,–
"COC(=O)c1c(C(=O)OC)c2cc(C(=O)OC(C)C)ccn2c1C(=O)c1ccccc1 [Compound 3a, 7-Isopropyl 1,2-dimethyl 3-benzoylindolizine-1,2,7-tricarboxylate]",–,–,–,–,39.2 ± 1.64%,39.2 ± 1.64%,45.5 ± 2.65%,45.5 ± 2.65%
"CCOC(=O)c1cc(C(=O)c2ccccc2)n2ccc(C(=O)OC(C)C)cc12 [Compound 3b, 1-Ethyl 7-isopropyl 3-benzoylindolizine-1,7-dicarboxylate]",–,–,–,–,32.6 ± 2.44%,32.6 ± 2.44%,36.8 ± 1.79%,36.8 ± 1.79%
"COC(=O)c1c(C(=O)OC)c2cc(C(=O)OC(C)C)ccn2c1C(=O)c1ccc(F)cc1 [Compound 3c, 7-Isopropyl 1,2-dimethyl 3-(4-fluorobenzoyl)indolizine-1,2,7-tricarboxylate]",–,–,–,–,79.1 ± 1.65%,79.1 ± 1.65%,82.3 ± 2.71%,82.3 ± 2.71%
"CCOC(=O)c1cc(C(=O)c2ccc(F)cc2)n2ccc(C(=O)OC(C)C)cc12 [Compound 3d, 1-Ethyl 7-isopropyl 3-(4-fluorobenzoyl)indolizine-1,7-dicarboxylate]",–,–,–,–,87.3 ± 1.64%,87.3 ± 1.64%,91.2 ± 3.18%,91.2 ± 3.18%
"COC(=O)c1c(C(=O)OC)c2cc(C(=O)OC(C)C)ccn2c1C(=O)c1ccc(Cl)cc1 [Compound 3e, 7-Isopropyl 1,2-dimethyl 3-(4-chlorobenzoyl)indolizine-1,2,7-tricarboxylate]",–,–,–,–,67.9 ± 2.91%,67.9 ± 2.91%,70.9 ± 1.67%,70.9 ± 1.67%
"CCOC(=O)c1cc(C(=O)c2ccc(Cl)cc2)n2ccc(C(=O)OC(C)C)cc12 [Compound 3f, 1-Ethyl 7-isopropyl 3-(4-chlorobenzoyl)indolizine-1,7-dicarboxylate]",–,–,–,–,66 ± 2.94%,66 ± 2.94%,69.2 ± 2.47%,69.2 ± 2.47%
"COC(=O)c1c(C(=O)OC)c2cc(C(=O)OC(C)C)ccn2c1C(=O)c1ccc(Br)cc1 [Compound 3g, 7-Isopropyl 1,2-dimethyl 3-(4-bromobenzoyl)indolizine-1,2,7-tricarboxylate]",–,–,–,–,89.4 ± 2.42%,89.4 ± 2.42%,91.1 ± 2.21%,91.1 ± 2.21%
"CCOC(=O)c1cc(C(=O)c2ccc(Br)cc2)n2ccc(C(=O)OC(C)C)cc12 [Compound 3h, 1-Ethyl 7-isopropyl 3-(4-bromobenzoyl)indolizine-1,7-dicarboxylate]",–,–,–,–,82.3 ± 1.23%,82.3 ± 1.23%,86.7 ± 1.39%,86.7 ± 1.39%
"COC(=O)c1c(C(=O)OC)c2cc(C(=O)OC(C)C)ccn2c1C(=O)c1ccc(C#N)cc1 [Compound 3i, 7-isopropyl 1,2-dimethyl 3-(4-cyanobenzoyl)indolizine-1,2,7-tricarboxylate]",–,–,–,–,62.4 ± 1.8%,62.4 ± 1.8%,63.8 ± 1.9%,63.8 ± 1.9%
"CCOC(=O)c1cc(C(=O)c2ccc(C#N)cc2)n2ccc(C(=O)OC(C)C)cc12 [Compound 3j, 1-Ethyl 7-isopropyl 3-(4-cyanobenzoyl)indolizine-1,7-dicarboxylate]",–,–,–,–,61.6 ± 1.23%,61.6 ± 1.23%,66.1 ± 2.62%,66.1 ± 2.62%
"COC(=O)c1c(C(=O)OC)c2cc(C(=O)OC(C)C)ccn2c1C(=O)c1ccc(C)cc1 [Compound 3k, 7-Isopropyl 1,2-dimethyl 3-(4-methylbenzoyl)indolizine-1,2,7-tricarboxylate]",–,–,–,–,57.5 ± 1.32%,57.5 ± 1.32%,60 ± 1.87%,60 ± 1.87%
"COC(=O)c1c(C(=O)OC)c2cc(C(=O)OC(C)C)ccn2c1C(=O)c1cc(C(F)(F)F)cc(C(F)(F)F)c1 [Compound 3l, 7-Isopropyl 1,2-dimethyl 3-(3,5-bis(trifluoromethyl)benzoyl)indolizine-1,2,7-tricarboxylate]",–,–,–,–,97.2 ± 2.3%,97.2 ± 2.3%,99.5 ± 1.49%,99.5 ± 1.49%
"COP(=S)(OC)Oc1ccc(Sc2ccc(OP(=S)(OC)OC)cc2)cc1 [Temephos, reference compound]",–,–,–,–,98.3%,–,100%,–
